The values that follow come from ChEMBL document CHEMBL1201862, “PubChem BioAssay data set” (2004).

Experiment [1] has as its target T1, Streptokinase A (Streptococcus pyogenes serotype M1, UniProt P10520).
T1 sequence (P10520 whole entry): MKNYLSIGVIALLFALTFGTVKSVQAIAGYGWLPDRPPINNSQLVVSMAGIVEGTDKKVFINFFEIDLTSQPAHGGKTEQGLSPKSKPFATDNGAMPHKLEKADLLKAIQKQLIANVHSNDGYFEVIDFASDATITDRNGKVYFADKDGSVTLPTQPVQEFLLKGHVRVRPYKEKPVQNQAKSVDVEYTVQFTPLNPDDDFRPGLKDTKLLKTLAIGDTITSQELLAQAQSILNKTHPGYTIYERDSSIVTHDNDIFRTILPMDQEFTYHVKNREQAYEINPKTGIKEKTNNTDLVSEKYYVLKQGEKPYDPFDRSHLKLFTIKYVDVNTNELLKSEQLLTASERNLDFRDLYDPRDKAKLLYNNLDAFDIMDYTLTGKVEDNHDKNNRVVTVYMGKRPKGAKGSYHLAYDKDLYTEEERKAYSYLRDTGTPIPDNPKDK
The experiment is described as follows: viability-normalized secreted streptokinase activity reduction – plasminogen activation absorbance, OD405, dose response (AID 1914).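 Note: secreted streptokinase activity via plasminogen activation per viability signal from cell pellet.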 Type of experiment: functional, Streptococcus pyogenes M1 GAS.

Experiment [2] deals with BJ. The experiment is described as follows: BJ-TERT fibroblast viability loss – cell-based, RAS-independent, luminescence, dose response (AID 1933). It is filed as functional. The settings on record: Homo sapiens.
The target of experiment [3] is Peroxisome proliferator-activated receptor gamma/Nuclear receptor corepressor 2 (Homo sapiens, UniProt P37231+Q9Y618). It is filed as functional.
The target in experiment [4] is T2, Protein RecA (Mycobacterium tuberculosis, UniProt P9WHJ3).
T2 sequence (P9WHJ3 whole entry): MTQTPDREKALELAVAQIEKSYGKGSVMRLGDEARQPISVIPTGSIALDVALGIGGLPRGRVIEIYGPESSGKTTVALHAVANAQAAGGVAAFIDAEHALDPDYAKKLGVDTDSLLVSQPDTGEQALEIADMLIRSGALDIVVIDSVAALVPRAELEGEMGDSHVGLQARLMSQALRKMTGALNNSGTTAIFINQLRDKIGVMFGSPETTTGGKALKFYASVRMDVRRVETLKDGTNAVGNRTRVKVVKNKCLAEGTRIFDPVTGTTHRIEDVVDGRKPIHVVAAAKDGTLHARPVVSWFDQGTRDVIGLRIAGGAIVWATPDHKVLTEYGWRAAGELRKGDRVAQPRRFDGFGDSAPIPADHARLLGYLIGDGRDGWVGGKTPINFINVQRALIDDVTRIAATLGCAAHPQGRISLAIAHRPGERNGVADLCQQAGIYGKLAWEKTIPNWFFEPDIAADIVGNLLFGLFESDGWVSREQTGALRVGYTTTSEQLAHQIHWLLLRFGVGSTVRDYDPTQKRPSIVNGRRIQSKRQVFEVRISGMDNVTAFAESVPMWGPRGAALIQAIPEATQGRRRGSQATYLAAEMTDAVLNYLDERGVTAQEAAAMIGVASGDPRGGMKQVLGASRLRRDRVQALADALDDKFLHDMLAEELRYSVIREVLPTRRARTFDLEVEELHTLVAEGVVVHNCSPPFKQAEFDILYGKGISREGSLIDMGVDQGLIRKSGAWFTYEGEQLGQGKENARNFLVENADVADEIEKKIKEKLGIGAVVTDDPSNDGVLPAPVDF
The experiment is described as follows: RecA Intein Measured in Biochemical System Using Plate Reader - 2047-02_Inhibitor_Dose_DryPowder_Activity. [Related pubchem assays (depositor defined):AID2223]. The arrangement: species or system Mycobacterium tuberculosis H37Rv.

For experiment [5], the target named is Dual specificity protein phosphatase 6 (Rattus norvegicus, UniProt Q64346). The experiment is described as follows: inhibition of rat DUSP6 enzyme activity – biochemical, in vitro, primary screen (AID 425).
Experiment [6] has as its target Protein-arginine deiminase type-4 (Homo sapiens, UniProt Q9UM07). Briefly: IC50 against protein arginine deiminase 4 – biochemical, fluorescence readout, dose response (AID 492970).

The structures appear in SMILES notation. Calls of active or inactive are those of the source.

Sequence of Dual specificity protein phosphatase 6 (Q64346 whole entry): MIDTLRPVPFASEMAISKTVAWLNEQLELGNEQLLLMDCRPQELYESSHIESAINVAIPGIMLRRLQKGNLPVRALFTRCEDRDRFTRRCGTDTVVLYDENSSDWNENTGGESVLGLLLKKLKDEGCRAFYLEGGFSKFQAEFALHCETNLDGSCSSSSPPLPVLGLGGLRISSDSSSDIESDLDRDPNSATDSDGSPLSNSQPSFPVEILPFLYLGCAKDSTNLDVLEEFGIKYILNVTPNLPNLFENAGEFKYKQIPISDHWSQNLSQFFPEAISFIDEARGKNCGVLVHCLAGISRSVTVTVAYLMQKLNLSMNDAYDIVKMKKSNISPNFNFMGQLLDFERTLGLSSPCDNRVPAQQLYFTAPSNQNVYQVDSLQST
Sequence of Protein-arginine deiminase type-4 (Q9UM07 whole entry): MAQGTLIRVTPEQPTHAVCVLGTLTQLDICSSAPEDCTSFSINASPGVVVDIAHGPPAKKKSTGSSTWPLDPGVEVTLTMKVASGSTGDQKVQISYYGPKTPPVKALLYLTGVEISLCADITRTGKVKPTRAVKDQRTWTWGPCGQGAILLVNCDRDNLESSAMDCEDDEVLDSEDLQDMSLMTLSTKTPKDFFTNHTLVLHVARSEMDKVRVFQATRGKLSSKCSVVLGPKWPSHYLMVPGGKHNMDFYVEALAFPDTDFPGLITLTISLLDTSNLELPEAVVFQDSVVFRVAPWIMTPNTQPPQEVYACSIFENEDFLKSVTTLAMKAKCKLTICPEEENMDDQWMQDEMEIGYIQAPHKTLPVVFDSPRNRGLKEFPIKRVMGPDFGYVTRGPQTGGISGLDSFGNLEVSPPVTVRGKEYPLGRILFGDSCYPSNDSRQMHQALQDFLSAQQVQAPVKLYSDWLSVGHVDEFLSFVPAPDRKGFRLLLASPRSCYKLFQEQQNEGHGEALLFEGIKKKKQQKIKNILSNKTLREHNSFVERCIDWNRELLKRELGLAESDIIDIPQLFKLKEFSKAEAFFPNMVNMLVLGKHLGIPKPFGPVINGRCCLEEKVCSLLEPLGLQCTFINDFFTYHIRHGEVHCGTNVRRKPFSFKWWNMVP
Sequence of Peroxisome proliferator-activated receptor gamma/Nuclear receptor corepressor 2 (P37231 whole entry): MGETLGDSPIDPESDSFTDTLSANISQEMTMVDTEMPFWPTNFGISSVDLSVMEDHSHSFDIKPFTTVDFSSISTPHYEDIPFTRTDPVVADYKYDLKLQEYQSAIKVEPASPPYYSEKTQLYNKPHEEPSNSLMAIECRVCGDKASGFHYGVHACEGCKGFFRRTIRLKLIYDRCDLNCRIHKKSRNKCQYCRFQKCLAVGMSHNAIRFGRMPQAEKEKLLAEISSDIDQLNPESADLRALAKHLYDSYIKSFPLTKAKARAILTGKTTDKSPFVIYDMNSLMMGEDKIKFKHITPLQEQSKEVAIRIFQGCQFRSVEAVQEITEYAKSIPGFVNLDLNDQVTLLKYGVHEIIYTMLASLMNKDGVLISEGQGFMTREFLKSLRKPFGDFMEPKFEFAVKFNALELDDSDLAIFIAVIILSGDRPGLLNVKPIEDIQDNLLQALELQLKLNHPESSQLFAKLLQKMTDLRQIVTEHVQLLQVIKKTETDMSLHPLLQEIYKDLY
Sequence of Peroxisome proliferator-activated receptor gamma/Nuclear receptor corepressor 2 (Q9Y618 whole entry): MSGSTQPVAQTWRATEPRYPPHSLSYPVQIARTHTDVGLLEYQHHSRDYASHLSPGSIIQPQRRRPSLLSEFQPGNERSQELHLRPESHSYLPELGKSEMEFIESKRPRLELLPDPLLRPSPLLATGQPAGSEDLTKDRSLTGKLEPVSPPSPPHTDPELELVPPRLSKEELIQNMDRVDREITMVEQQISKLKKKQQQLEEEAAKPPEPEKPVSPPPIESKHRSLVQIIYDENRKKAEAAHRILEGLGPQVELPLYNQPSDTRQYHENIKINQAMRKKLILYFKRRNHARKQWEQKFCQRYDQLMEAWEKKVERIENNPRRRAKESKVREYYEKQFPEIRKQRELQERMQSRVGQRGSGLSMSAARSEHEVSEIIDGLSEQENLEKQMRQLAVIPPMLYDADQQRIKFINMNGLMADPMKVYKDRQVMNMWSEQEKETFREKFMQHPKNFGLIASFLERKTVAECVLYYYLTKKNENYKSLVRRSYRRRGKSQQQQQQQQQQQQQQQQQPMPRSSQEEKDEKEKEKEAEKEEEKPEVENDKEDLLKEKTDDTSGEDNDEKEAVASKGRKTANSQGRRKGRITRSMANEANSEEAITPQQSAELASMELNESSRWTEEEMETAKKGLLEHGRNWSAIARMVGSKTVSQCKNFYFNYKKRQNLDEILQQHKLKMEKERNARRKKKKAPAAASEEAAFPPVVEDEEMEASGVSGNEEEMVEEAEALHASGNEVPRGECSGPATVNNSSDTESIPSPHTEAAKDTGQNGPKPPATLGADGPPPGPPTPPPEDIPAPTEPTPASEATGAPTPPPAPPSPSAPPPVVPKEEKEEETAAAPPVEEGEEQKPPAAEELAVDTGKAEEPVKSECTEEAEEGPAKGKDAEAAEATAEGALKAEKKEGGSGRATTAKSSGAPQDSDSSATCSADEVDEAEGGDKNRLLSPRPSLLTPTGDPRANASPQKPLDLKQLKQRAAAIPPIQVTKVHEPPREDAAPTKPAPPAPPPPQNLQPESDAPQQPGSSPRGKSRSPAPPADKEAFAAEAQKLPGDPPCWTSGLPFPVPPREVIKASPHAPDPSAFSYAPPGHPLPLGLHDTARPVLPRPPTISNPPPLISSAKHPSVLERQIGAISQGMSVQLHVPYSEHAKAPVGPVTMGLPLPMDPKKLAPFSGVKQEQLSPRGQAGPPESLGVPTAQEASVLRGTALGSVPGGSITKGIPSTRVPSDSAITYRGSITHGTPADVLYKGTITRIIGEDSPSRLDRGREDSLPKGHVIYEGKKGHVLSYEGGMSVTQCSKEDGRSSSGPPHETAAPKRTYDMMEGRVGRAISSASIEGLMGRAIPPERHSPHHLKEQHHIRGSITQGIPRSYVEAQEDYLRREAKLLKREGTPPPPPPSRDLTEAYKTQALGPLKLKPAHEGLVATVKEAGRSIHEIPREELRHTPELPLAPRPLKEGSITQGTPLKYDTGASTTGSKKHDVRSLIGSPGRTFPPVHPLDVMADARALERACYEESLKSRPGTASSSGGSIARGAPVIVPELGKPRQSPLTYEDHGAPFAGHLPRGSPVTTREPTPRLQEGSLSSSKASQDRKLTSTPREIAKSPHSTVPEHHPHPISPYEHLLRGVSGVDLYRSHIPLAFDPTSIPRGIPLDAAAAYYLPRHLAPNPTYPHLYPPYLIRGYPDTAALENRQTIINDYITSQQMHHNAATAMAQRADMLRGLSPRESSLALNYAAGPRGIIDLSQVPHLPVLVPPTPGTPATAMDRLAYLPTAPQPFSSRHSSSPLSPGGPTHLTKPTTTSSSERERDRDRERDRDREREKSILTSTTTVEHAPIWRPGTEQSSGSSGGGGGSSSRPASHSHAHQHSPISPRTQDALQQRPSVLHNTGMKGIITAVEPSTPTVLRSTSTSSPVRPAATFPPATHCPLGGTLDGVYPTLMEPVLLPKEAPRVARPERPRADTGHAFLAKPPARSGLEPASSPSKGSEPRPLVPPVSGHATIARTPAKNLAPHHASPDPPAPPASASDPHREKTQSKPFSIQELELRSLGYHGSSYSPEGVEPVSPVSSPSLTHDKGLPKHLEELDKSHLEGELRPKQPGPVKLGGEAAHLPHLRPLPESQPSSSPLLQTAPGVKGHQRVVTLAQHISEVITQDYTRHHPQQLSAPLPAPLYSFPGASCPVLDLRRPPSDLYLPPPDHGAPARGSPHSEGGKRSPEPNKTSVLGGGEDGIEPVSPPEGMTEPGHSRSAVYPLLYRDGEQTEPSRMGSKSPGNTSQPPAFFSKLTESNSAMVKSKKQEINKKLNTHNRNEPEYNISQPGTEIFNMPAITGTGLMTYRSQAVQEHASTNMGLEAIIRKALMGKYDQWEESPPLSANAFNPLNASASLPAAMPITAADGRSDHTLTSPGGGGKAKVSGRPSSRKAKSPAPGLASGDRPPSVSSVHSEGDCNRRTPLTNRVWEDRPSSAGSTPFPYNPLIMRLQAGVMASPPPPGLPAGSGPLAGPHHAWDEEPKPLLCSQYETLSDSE

Regarding `CCCCCCCCCCn1c2c(c(=N)c3c1CCC3)CCC2`, the figures for the EC50 in experiment [1] and in experiment [2] were 4.86 µM (active) and 3.26 µM (inconclusive), respectively.
As for `Cn1nc(-c2ccccn2)nc2c(=O)n(C)c(=O)nc1-2`, the IC50 is 4.69 µM (active) in experiment [3], < 1.23 µM (not active) in experiment [5] and 21 µM (inactive) in experiment [6]. The AC50 in experiment [4] is 0.047 µM (active).
